Test results reported in patent US7320977B2, “Substituted 2-phenyl-3(2h)-pyridazinones” (Bayer Healthcare AG, priority 2002, dated 2008).

Assays:
lysyl oxidase = target: T1, lysyl oxidase (Bos taurus, UniProt P33072); test: Test for lysyl oxidase-inhibitory effect (homovanillic acid/horseradish peroxidase fluorescence); format: biochemical; settings: enzyme from bovine aortas, 15 minutes preincubation, pH 8.2; read-out: IC50 (inhibition of lysyl oxidase)
T1 construct: The enzyme was isolated from bovine aortas; from tissue; host or cells: bovine aorta
T1 sequence (P33072 170-418): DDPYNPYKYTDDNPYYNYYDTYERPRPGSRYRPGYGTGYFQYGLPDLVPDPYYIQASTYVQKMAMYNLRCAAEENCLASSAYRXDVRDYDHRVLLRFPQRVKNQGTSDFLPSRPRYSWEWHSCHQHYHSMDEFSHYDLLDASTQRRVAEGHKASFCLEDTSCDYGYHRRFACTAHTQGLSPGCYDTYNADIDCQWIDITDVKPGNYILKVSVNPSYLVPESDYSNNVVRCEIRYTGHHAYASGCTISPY
Procedure: 1. Test for Lysyl Oxidase-inhibitory Effect:
The enzyme was isolated from bovine aortas in a modification of a method of Kagan et al. [Biochem. J. 177, 203-214 (1979)] by extraction with phosphate buffer containing urea, followed by precipitation and chromatography on DEAE-Sephadex.
The test solution (total volume 200 μl) is composed of 1.5 mM homovanillinic acid, 5 mM 1,5-diaminopentane, 1 unit of horseradish peroxidase and 1.5 M urea in 50 mM sodium borate buffer of pH 8.2. The enzyme was preincubated with the compound to be tested for 15 minutes; the reaction was started by adding diaminopentane and homovanillin/horseradish peroxidase. The fluorescence of the homovanillin dimer which formed was measured with excitation at 315 nm and emission at 425 nm. This test arrangement is a modification of the method of Trackman et al. [Anal. Biochem. 113, 336-341 (1981)].
The IC50 as a measure of the inhibition of lysyl oxidase is found by testing various concentrations of substance and using the concentration-effect plots.

[1] = system: serum-induced hepatic fibrosis in rats; test: Model of serum-induced hepatic fibrosis, liver collagen content (4-hydroxyproline); format: in vivo, rat; settings: serum-treated female Sprague-Dawley rats, 3 mg/kg p.o. o.d.; vehicle 2.070, intact 0.577; P <0.01
Procedure: c) Model of Serum-induced Hepatic Fibrosis: A septal fibrosis can be induced in rats also by repeated injection of heterologous serum. For this purpose, 0.5 ml of sterile-filtered porcine serum is administered i.p. to each animal twice a week [Bhunchet and Wake, Hepatology 16, 1452-73 (1992)]. The experiments were carried out with female Sprague-Dawley rats (200-220 g). After 6-8 weeks, the septal fibrosis is histologically manifest and can also be detected through an increase in the liver hydroxyproline content. b) Collagen Content: The total collagen content was estimated by means of the tissue 4-hydroxyproline concentration. The method of Prockop and Udenfried [D. J. Prockop and S. Udenfried, A specific method for the analysis of hydroxyproline in tissues and urine, Anal. Biochem. 1, 228-239 (1960)] in modified form was used: liver samples with a wet weight of 60-90 mg were dried and then hydrolyzed in 6 N hydrochloric acid at 100° C. for 17 hours. The hydrolyzate was dried by evaporation and reconstituted in 5 ml of deionized water. […] After incubation at 35° C. for 3 hours, the absorption was measured at 573 nm. […]

[2] = system: hepatic fibrosis resulting from chronic administration of carbon tetrachloride in rats; test: Model of chronic carbon tetrachloride intoxication, liver collagen content (4-hydroxyproline); format: in vivo, rat; settings: CCl4-treated female Sprague-Dawley rats, 30 mg/kg p.o. o.d., 6 weeks; vehicle 1.921, intact 0.504; P =0.059 vs. vehicle
Source text: a) Model of Chronic Carbon Tetrachloride Intoxication:
Chronic carbon tetrachloride (CCl4) treatment is a standard method for generating hepatic fibrosis of nonviral origin and subsequent cirrhosis. It is generally accepted as a model of hepatic fibrosis and cirrhosis in humans [E. McLean, A. McLean, P. Sutton, Instant Fibrosis: An improved method for producing cirrhosis of the liver in rats by simultaneous administration of carbon tetrachloride and phenobarbitone, Br. J. Exp. Pathol. 50, 502-506 (1969)].
Female Sprague-Dawley rats (200-220 g) were employed. In order to achieve maximum microsomal metabolization of the CCl4, the animals received isoniazid in the drinking water (1 g/l) for one week before starting the administration of carbon tetrachloride. CCl4 was administered orally each fifth day in a dose of 0.2 ml/100 g of bodyweight in a 1:1 mixture with mineral oil. […] Necropsy was performed 6 weeks after starting the treatment.
The total collagen content was estimated by means of the tissue 4-hydroxyproline concentration. […] After incubation at 35° C. for 3 hours, the absorption was measured at 573 nm. […]

[3] = system: hepatic fibrosis following bile duct ligature in rats; test: Model of bile duct ligature, histological morphometry (picrosirius red); format: in vivo, rat; settings: 15 mg/kg p.o. b.i.d.
Procedure: b) Model of Bile Duct Ligature:
The experiments were carried out with female Sprague-Dawley rats (200-220 g). In order to generate chronic fibrosis, the bile duct (common hepatic duct) was doubly ligated in a surgical procedure. Ethibloc® occlusion emulsion (Ethicon, Norderstedt, Germany), a mixture of prolamine and ethanol, was instilled retrogradely into the biliary system [J. Kountouras, B. Billing, P. Scheuer, Prolonged bile obstruction: A new experimental model for cirrhosis in the rat, Br. J. Exp. Pathol. 65, 305-311 (1984); G. Boigk, L. Stroedter, H. Herbst, J. Waldschmidt, E. O. Riecken, D. Schuppan, Silymarin retards collagen accumulation in early and advanced biliary fibrosis secondary to complete bile duct obliteration in rats, Hepatology 26, 643-649 (1997)]. […] The animals were sacrificed and investigated three weeks after the surgical procedure.
a) Histological Assessments/Morphometry:
Standardized transverse cylinders of liver tissue (approx. 10×2 mm) were cut out of the right anterior lobe of each rat liver. Frozen sections were stained with 0.1% picrosirius red solution to detect scar collagen associated with hepatic fibrosis. The contrast was increased by counterstaining with fast green. The extent of hepatic fibrosis was found as a percentage of the part stainable with picrosirius red in each section. […]

Row | SMILES | IC50 (lysyl oxidase) [nM] | melting point [°C] | further results
1 | CCOc1c(N2CCOCC2)cnn(C)c1=O [4-ethoxy-2-methyl-5-morpholino-3(2H)-pyridazinone, reference compound] | > 4000 | – | –
2 | CCN1CCN(c2cnn(-c3ccc(C)cc3)c(=O)c2Oc2ccc(-c3ccc(O)cc3)cc2)CC1 [Ex. 5, 5-(4-Ethyl-1-piperazinyl)-4-[(4′-hydroxy-1,1′-biphenyl-4-yl)oxy]-2-(4-methylphenyl)-3(2H)-pyridazinone] | 17 | – | –
3 | CS(=O)(=O)N1CCN(c2cnn(-c3ccc(Cl)cc3)c(=O)c2Oc2ccc(-c3ccc(F)c(CN)c3)cc2)CC1 [Ex. 8, 4-{[3′-(Aminomethyl)-4′-fluoro-1,1′-biphenyl-4-yl]oxy}-2-(4-chlorophenyl)-5-[4-(methylsulfonyl)-1-piperazinyl]-3(2H)-pyridazinone] | 7 | – | –
4 | O=c1c(Oc2ccc(-c3ccccc3)cc2)c(N2CCNCC2)cnn1-c1ccc(Cl)cc1 [Ex. 12, 4-(1,1′-Biphenyl-4-yloxy)-2-(4-chlorophenyl)-5-(1-piperazinyl)-3(2H)-pyridazinone] | 3 | – | –
5 | O=c1c(Oc2ccc(-c3ccc(F)cc3)cc2)c(N2CCC(CO)CC2)cnn1-c1ccc(Cl)cc1 [Ex. 25, 2-(4-Chlorophenyl)-4-[(4′-fluoro-1,1′-biphenyl-4-yl)oxy]-5-[4-(hydroxymethyl)-1-piperidinyl]-3(2H)-pyridazinone] | 5 | – | –
6 | CN1CCN(c2cnn(-c3ccc(Cl)cc3)c(=O)c2Oc2ccc(-c3ccccc3)cc2)CC1.Cl [Ex. 34] | 9 | 162 | 4-Hydroxyproline content: average in mg/g dry weight [1]: 1.293 mg/g dry weight
7 | O=c1c(Oc2ccc(-c3ccc(O)cc3)cc2)c(-n2ccnc2)cnn1-c1ccc(Cl)cc1 [Ex. 81] | 7 | – | –
8 | O=c1c(Oc2ccc(-c3ccccc3)cc2)c(-n2ccnc2)cnn1-c1ccc(Cl)cc1 [Ex. 82] | 11 | – | 4-Hydroxyproline content: average in mg/g dry weight [2]: 1.260 mg/g dry weight; Proportionate area stainable with picrosirius red: average in % ([3]; bile duct ligated female Sprague-Dawley rats, three weeks, vehicle 7.4, sham 0.21, P <0.05 vs. vehicle): 4.98%; inhibition in fibrosis ([3]; bile duct ligated rats, worked out from Table 2): approx. 34%
9 | CC(=O)NCc1cc(-c2ccc(Oc3c(N4CCNCC4)cnn(-c4ccc(Cl)cc4)c3=O)cc2)ccc1F [Ex. 176] | 10 | – | –
10 | O=c1c(Oc2ccc(-c3ccc(F)cc3)cc2)c(-n2ccnc2)cnn1-c1ccc([N+](=O)[O-])cn1 [compound 71] | – | 186 | –
11 | N#CCCN [β-Aminopropionitrile (BAPN), reference compound] | 10000 | – | –

Continued, in another order:

Row | IC50 (lysyl oxidase) [nM] | melting point [°C] | SMILES | further results
12 | – | 151 | CCOC(=O)c1ccc(-n2ncc(-n3ccnc3)c(Oc3ccc(-c4ccccc4)cc3)c2=O)cc1 [compound 72] | –
13 | – | 148 | O=c1c(Oc2ccc(-c3ccccc3)cc2)c(-n2ccnc2)cnn1-c1cccc(F)c1 [compound 73] | –
14 | – | 119 | O=c1c(Oc2ccc(-c3ccccc3)cc2)c(-n2ccnc2)cnn1-c1ccc(F)cc1 [compound 74] | –
15 | – | 220 | Cc1ccc(-n2ncc(-n3ccnc3)c(Oc3ccc(-c4ccc(C#N)cc4)cc3)c2=O)cc1 [compound 76] | –
16 | – | 177 | Cc1ccc(-n2ncc(-n3ccnc3)c(Oc3ccc(-c4ccccc4)cc3)c2=O)cc1 [compound 77] | –
17 | – | 188 | O=c1c(Oc2ccc(-n3cccc3)cc2)c(-n2ccnc2)cnn1-c1ccc(Cl)cc1 [compound 78] | –
18 | – | 276 | N#Cc1ccc(-c2ccc(Oc3c(-n4ccnc4)cnn(-c4ccc(Cl)cc4)c3=O)cc2)cc1 [compound 80] | –
19 | – | 180 | CS(=O)(=O)Nc1ccc(-c2ccc(Oc3c(-n4ccnc4)cnn(-c4ccc(Cl)cc4)c3=O)cc2)cc1 [compound 83] | –
